Measurements taken from ChEMBL document CHEMBL6074708, “Advanced Delivery Systems and Novel Psilocin Derivatives for Enhanced Therapeutic Applications” (ACS Med Chem Lett, 2024).

Target: 5-hydroxytryptamine receptor 2A (Homo sapiens) (UniProt P28223)
Assay: Displacement of [3H]ketanserin from human 5HT2A receptor expressed in HEK293 cells at 0 to 10000 nM preincubated with compound for 30 mins followed by [3H]ketanserin addition and measured after 60 mins by microBeta scintillation counter relative to psilocin
Assay type: cell-based
Conditions: dose 0-10000 nM, time 90.0 min; call rule not given here

5-hydroxytryptamine receptor 2A (Homo sapiens), sequence (P28223 whole entry): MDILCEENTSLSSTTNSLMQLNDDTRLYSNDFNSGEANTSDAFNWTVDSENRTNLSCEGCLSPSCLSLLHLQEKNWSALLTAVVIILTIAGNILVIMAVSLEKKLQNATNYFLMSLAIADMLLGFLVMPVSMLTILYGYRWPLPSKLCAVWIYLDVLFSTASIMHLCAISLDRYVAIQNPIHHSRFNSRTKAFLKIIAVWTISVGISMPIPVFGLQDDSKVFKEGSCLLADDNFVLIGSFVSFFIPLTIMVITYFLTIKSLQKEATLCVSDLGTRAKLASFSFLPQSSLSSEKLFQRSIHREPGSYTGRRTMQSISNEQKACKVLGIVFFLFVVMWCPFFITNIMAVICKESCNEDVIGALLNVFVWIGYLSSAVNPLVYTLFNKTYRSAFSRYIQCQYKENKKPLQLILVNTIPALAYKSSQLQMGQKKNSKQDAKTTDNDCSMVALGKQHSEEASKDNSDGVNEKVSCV

Structure (SMILES) | Activity
CN(C)CCc1c[nH]c2cccc(OC(=O)[C@H]3C[C@@H]3C(=O)Oc3cccc4[nH]cc(CCN(C)C)c34)c12 | Active; Higher Activity Observed
CN(C)CCc1c[nH]c2cccc(O)c12 | Active; Same Activity Observed
CN(C)CCc1c[nH]c2cccc(OC(=O)C(C)(C)C(=O)Oc3cccc4[nH]cc(CCN(C)C)c34)c12 | Active; Higher Activity Observed
CN(C)CCc1c[nH]c2cccc(OC(=O)c3ccc(Br)cc3)c12 | Active; Same Activity Observed
CN(C)CCc1c[nH]c2cccc(OC(=O)CCC(=O)Oc3cccc4[nH]cc(CCN(C)C)c34)c12 | Active; Higher Activity Observed
CN(C)CCc1c[nH]c2cccc(OC(=O)c3ccccc3F)c12 | Active; Same Activity Observed
CN(C)CCc1c[nH]c2cccc(OC(=O)c3cccc(C(=O)Oc4cccc5[nH]cc(CCN(C)C)c45)c3)c12 | Active; Higher Activity Observed
CN(C)CCc1c[nH]c2cccc(OC(=O)CCCC(=O)Oc3cccc4[nH]cc(CCN(C)C)c34)c12 | Active; Higher Activity Observed
